Series [1] deals with P. falciparum 3D7 strain, chloroquine sensitive. Nature of the series: In vitro antimalarial activity screening (SYBR Green I micromethod). In kind it is cell-based. The settings on record: Plasmodium falciparum, read-out: P. falciparum 3D7 IC50. The procedure:
The SYBR^©GreenI-based micromethod was followed for testing the antimalarial activity of the compounds. Erythrocytic stages of P. falciparum 3D7 strain, chloroquine sensitive, were maintained in RPMI 1640 culture medium supplemented with 0.5% Albumax II at 37 °C in an atmosphere with 5% CO2. […] Next, stock solutions of each compound were prepared in DMSO and diluted in RPMI medium in order to obtain concentrations from 10 to 0.01 µg/mL. […] All compounds and controls were placed in triplicate. The plate was incubated under the same conditions. After 48 h, the plate was removed from the incubator and frozen for at least 1 h at -70 °C and then thawed. Finally, 100 µL of SYBR^©GreenI in lysis buffer (0.2 µL/mL) was added per well and shaken for 5 minutes or until no precipitated erythrocytes were observed. The plate was left to stand in the dark for 1 h at room temperature. Fluorescence intensity (FI) for each well was measured. The background of the nonparasitized erythrocytes was subtracted from each well tested.

The test system of a further series is P. berghei ANKA strain. In kind it is in vivo. The note with it: for GIP of P. bergei (growth inhibition percentage): 10 mg/kg/day, positive control; for appearance / toxicity in treated mice: in vivo. The procedure: The in vivo antimalarial activity of the compounds was measured by the classical 4-day suppressive test. Briefly, on day 0, groups of five NMRI male mice, weighing 20 ± 2 g each, were inoculated with 2 × 10^7 red blood cells RBCs infected by erythrocytic stages of rodent malaria parasite P. berghei ANKA strain. Two hours later, each group of mice was treated intraperitoneally with a dose of 50 mg/kg of the selected compound, previously prepared in DMSO. Treatment was continued from day 1 to day 3, always at similar times. On day 4, Giemsa-stained thin blood smears from the tail of the mice were prepared and microscopically examined with 1,000× magnification. The mean of the parasitemia of each group was calculated in a total of 1,000 RBCs, and the growth inhibition percentage of parasite was estimated in relation to the control group, which received only the solvent of the products. % inhibition = [(Par control – Par comp)/(Par control)] × 100

In another series the test system is Murine J774 macrophages. Nature of the series: Nonspecific cytotoxicity test (MTT). It counts as cell-based. The note with it: 10 µg/mL, 24 h exposure. The procedure:
Murine J774 macrophages were maintained in RPMI 1640 medium supplemented with 10% FBS at 37 °C in a 5% CO2 atmosphere. First, in a flat bottom 96-well microplate, 100 µL of macrophage suspension in RPMI medium, containing 5 × 10^4 cells, were distributed per well. The cells were allowed to attach for 24 h at 37 °C. Next, the medium was replaced by different concentrations of the compounds in 200 µL of medium, or DMSO at the same concentration as growth control, and the cells were exposed to the compounds solutions for another 24 h. Each concentration was assayed three times. Afterwards, the medium was eliminated and 100 µL/well of 3-(4,5-dimethythiazol-2-yl)-2,5-diphenyltetrazolium bromide (MTT) solution, 0.4 mg/mL in PBS, was added and the plates were returned to incubator for 1 h. The suspension was removed and the toxic effect of the compounds was assessed by the reduction of MTT to formazan crystals (as a cell viability indicator); said crystals were solubilized by adding 100 µL of DMSO. Finally, the optical density (OD) was measured at 595 nm and the toxicity percentage was calculated as follows:% toxicity = [(O.D.control - O.D.comp)/(O.D.control)] × 100

Series [2] relates to ferriprotoporphyrin IX biomineralization. Details: method as in PMID 12128052. The note with it: read-out: IC50 in the FBIT test; cited from earlier work.
Where [3] appears, read: 3D7, Table 1, 48 h incubation, mean of two experiments in triplicate.
Setting [4] is: 3D7, Table 2, 48 h incubation, mean of two experiments in triplicate.

pIC50: −log10 of the molar value. Like-named read-outs stand apart in the source and are kept apart here.

For the compound `CCN(CC)CCCC(C)Nc1ccnc2cc(Cl)ccc12` (stereo not drawn) [Chloroq., Chloroquine, reference compound], the pIC50 in series [1] (3D7, 48 h) is 7.10. Further, the “GIP of P. bergei (growth inhibition percentage)” value in the series on P. berghei ANKA strain (four-day treatment, NMRI male mice) is 100% at 10 mg/kg; in the series on P. berghei ANKA strain (four-day treatment, NMRI male mice, listed as chloroquine), “GIP = Growth inhibition percentage of the rodent malaria parasite after a four-day treatment. 10 mg/kg/day of chloroquine, positive control, inhibited 100% the growth parasite. ^a Toxic = death of more than half of the animals in the tested group”.
Consider `OC(CCN1CCN(c2cccc3ccccc23)CC1)c1csc2ccc(F)cc12` (stereo not drawn) [Compound 12], for which, in series [1] (setting [3]), the negative-log IC50 (pIC50) was 6.80. The “appearance / toxicity in treated mice” value in the series on P. berghei ANKA strain is listed as “the appearance of the mice was good”.
`COc1ccccc1N1CCN(CCC(O)c2csc3ccc(F)cc23)CC1` (stereo not drawn) [Compound 15]: in series [1] (setting [3]), the pIC50 is 6.48. Besides, the “appearance / toxicity in treated mice” value with P. berghei ANKA strain was “looked unhealthy and showed clear evidence of weight loss”.
`Cc1ccc2cccc(N3CCN(CCC(O)c4csc5ccc(F)cc45)CC3)c2n1` (stereo not drawn) [Compound 23]: the pIC50 in series [1] (setting [3]) is 6.42. The “appearance / toxicity in treated mice” value in the series on P. berghei ANKA strain was “looked unhealthy and showed clear evidence of weight loss”.
`O=[N+]([O-])c1ccc(N2CC[C@H](NCCC(O)c3csc4ccccc34)C2)c(C(F)(F)F)c1` (stereo partly drawn) [Compound 30, 1-(Benzo[b]thiophen-3-yl)-3-[1-(4-nitro-2-trifluoromethylphenyl)-(S)-pyrrolidin-3-ylamino]propan-1-ol] gave a melting point of 109 to 110 °C. Also, the pIC50 in series [1] (setting [3]) is 6.01.
Turning to `O=[N+]([O-])c1ccc(N2CCC(NCCC(O)c3csc4ccccc34)CC2)c(C(F)(F)F)c1` (stereo not drawn) [Compound 31, 1-(Benzo[b]thiophen-3-yl)-3-[1-(4-nitro-2-trifluoromethylphenyl)piperidin-4-ylamino]propan-1-ol], in series [1] (setting [3]), the pIC50 was 6.72. Moreover, the “cytotoxicity on murine macrophages J774” value in the series on Murine J774 macrophages is on record as “showed toxicity”. Further, in the series with P. berghei ANKA strain (50 mg/kg/day intraperitoneally, four-day treatment, NMRI male mice), the “GIP of P. bergei at 50 mg/kg/day (growth inhibition percentage)” value is “Toxic”. Further, in the series on P. berghei ANKA strain (male, NMRI, mouse, 4 days), the “appearance / toxicity in treated mice” value was “cytotoxicity of compound 31 was confirmed in the in vivo test”.
The compound `O=[N+]([O-])c1ccc(N2CCN(CCC(O)c3csc4ccc(F)cc34)CC2)cc1` (stereo not drawn) [Compound 32, 1-(5-Fluorobenzo[b]thiophen-3-yl)-3-[4-(4-nitrophenyl)piperazin-1-yl]propan-1-ol] came in with a melting point of 189 to 190 °C. The pIC50 in series [1] (setting [3]) is under 4.70.
On the same counts, the results for `O=[N+]([O-])c1ccc(N2CCC(NCCC(O)c3csc4ccccc34)CC2)cc1` (stereo not drawn) [Compound 33, 1-(Benzo[b]thiophen-3-yl)-3-(1-(4-nitrophenyl)piperidin-4-ylamino)propan-1-ol] are 153 to 155 °C and 6.00.
On to `O=[N+]([O-])c1ccc(N2CCCN(CCC(O)c3csc4ccccc34)CC2)cc1` (stereo not drawn) [Compound 34, 1-(Benzo[b]thiophen-3-yl)-3-(4-(4-nitrophenyl)-1,4-diazepan-1-yl)propan-1-ol], for which the melting point lay within 47 to 48 °C. The pIC50 in series [1] (setting [3]) is 5.46.
On the same counts, the results for `OC(CCN1CCN(c2cnc3ccccc3n2)CC1)c1csc2ccccc12` (stereo not drawn) [Compound 35, 1-(Benzo[b]thiophen-3-yl)-3-(4-(quinoxalin-2-yl)piperazin-1-yl)propan-1-ol] are 155 to 156 °C and 6.21.
For `OC(CCN1CCN(c2ccc(Cl)cc2)CC1)c1ccc(-c2ccccc2)cc1` (stereo not drawn) [Compound 38, 1-(4-Phenyl)phenyl-3-[4-(4-chlorophenyl)piperazin-1-yl]propan-1-ol], the melting point lay in the range of 169 to 170 °C. For the same compound, the pIC50 in series [1] (setting [4]) is under 4.70.
In the same order, the values of `COc1ccccc1N1CCN(CCC(O)c2ccc(-c3ccccc3)cc2)CC1` (stereo not drawn) [Compound 40, 1-(4-Phenyl)phenyl-3-[4-(2-methoxyphenyl)piperazin-1-yl]propan-1-ol] are 109 to 110 °C and 4.83.
In the same order, the values of `COc1ccccc1N1CCN(CCC(O)c2c[nH]c3ccccc23)CC1` (stereo not drawn) [Compound 41, 1-(3-Indolyl)-3-[4-(2-methoxyphenyl)piperazin-1-yl]propan-1-ol] are 188 to 189 °C and under 4.70.
In the case of `C=C[C@H]1C[N@@]2CC[C@H]1C[C@H]2[C@H](O)c1ccnc2ccc(OC)cc12` [quinine], the negative-log IC50 (pIC50) in series [2] was 3.49.

As a reminder, the pIC50 is the IC50 on a negative log10 scale, so that one unit is a factor of ten. For orientation: melting point means the temperature of the solid-liquid transition.
